The values that follow come from patent US8841413B2, “Antidiabetic compounds” (Cadila Healthcare Limited, priority 2006, dated 2014).

The subject of one assay is C57BL/6J mice. Kind of assay: Acute single dose 120-min time-course experiment, in vivo glucose reduction in C57BL/6J mice. Also on record: unit not given here. Particulars: male C57BL/6J mice, Mean ± SEM. As to the method:
All the animal experiments were carried out according to the internationally valid guidelines following approval by the ‘Zydus Research Center animal ethical committee’. […] Two days prior to the study, the animals were randomised and divided into 5 groups (n=6), based upon their fed glucose levels. On the day of experiment, food was withdrawn from all the cages, water was given ad-libitum and were kept for overnight fasting. Vehicle (normal saline)/test/standard compounds were administered intraperitoneally (i.p.) or orally, on a body weight basis. […] Blood samples were centrifuged and the separated serum was immediately subjected for the glucose estimation. Serum for insulin estimation was stored at −70° C. until used for the insulin estimation. The glucose estimation was carried out with DPEC-GOD/POD method (Ranbaxy Fine Chemicals Limited, Diagnostic division, India), using Spectramax-190, in 96-microwell plate reader (Molecular devices Corporation, Sunnyvale, Calif.). […] The AUC and BCAUC obtained from graphs were analyzed for one way ANOVA, followed by Dunnett's post test, using Graph Pad prism software. Furthermore, the insulin estimation was carried out using rat/mouse insulin ELISA kit (Linco research, Mo. USA).

The target of another assay is T1, human glucagon receptor (Homo sapiens, UniProt P47871).
T1 construct: The full-length cDNA was cloned in pcDNA3.1(Invitrogen); expressed in transfected cells
T1 sequence (P47871 26-477): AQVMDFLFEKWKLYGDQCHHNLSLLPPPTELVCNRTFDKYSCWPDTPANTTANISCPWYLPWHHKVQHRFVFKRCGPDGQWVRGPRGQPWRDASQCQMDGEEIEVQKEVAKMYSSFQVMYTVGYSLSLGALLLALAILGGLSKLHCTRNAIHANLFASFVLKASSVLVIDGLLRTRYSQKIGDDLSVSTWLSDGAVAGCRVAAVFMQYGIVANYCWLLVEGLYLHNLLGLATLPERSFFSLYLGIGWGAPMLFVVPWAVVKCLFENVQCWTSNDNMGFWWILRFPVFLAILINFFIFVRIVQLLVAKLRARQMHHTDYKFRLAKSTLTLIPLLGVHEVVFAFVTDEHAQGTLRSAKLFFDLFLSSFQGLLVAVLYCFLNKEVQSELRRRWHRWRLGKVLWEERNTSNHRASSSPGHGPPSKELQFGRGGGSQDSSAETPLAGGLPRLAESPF
Kind of assay: In vitro human glucagon antagonist activity (inhibition of cAMP production), CHO/human glucagon R cells. Format: cell-based. The following applies: in vitro, FIG. 3 / FIG. 4. As to the method:
CHO cells were grown in Ham's F12 medium containing L-Glutamine (2 mM), HEPES (25 mM), NaHCO3 (1.1 g/L) and supplemented with newborn Calf Serum (NBCS; 10%), Penicillin (50 U/ml (v/v)) and Streptomycin (50 ug/ml (v/v)). Cells were split every 3 days 1:8.
The full-length cDNA was cloned in pcDNA3.1(Invitrogen). […] Clones expressing the receptor were generated by G418 (800 μg/ml active, Sigma) selection. The stable clones were thereafter maintained at 500 ug/ml (G418). The selected clone was used between passages 9-25 for cAMP assays.
The trypsin was inactivated using Ham's F12 medium containing 10% NBCS and the cells were suspended in 2 ml of complete medium. […] The medium was aspirated off from the 12 well plate and the cells were washed once using Ham's F12 (plain). […] After the incubation; the medium was removed and cells were washed once with plain Ham's F12. Subsequently, the cells were lysed by adding 500 ul of ice cold 0.1 N HCl to each well and shaking for 30 minutes at 200 rpm. The cells were then scrapped, the lysate was collected in micro centrifuge tubes and centrifuged at 12000 rpm for 10 min to remove the debris. 300 ul of supernatant from each micro-centrifuge tube was then removed into a glass tube and dried under N2 for 30 min, for cAMP estimation. The total cAMP was estimated from the sample according to the manufacturer's protocol using Cyclic AMP immunoassay kit (R&D systems, Minneapolis: MN). The remaining supernatant is used to determine the protein concentration using micro BCA (Sigma). Data is calculated as percent of control (Vehicle: water) and expressed as Mean+SD.

The target in the next assay is T2, Human GLP-1 receptor (Homo sapiens, UniProt P43220).
T2 construct: The full-length cDNA was cloned in pcDNA3.1(+); expressed in transfected cells
T2 sequence (P43220 24-463): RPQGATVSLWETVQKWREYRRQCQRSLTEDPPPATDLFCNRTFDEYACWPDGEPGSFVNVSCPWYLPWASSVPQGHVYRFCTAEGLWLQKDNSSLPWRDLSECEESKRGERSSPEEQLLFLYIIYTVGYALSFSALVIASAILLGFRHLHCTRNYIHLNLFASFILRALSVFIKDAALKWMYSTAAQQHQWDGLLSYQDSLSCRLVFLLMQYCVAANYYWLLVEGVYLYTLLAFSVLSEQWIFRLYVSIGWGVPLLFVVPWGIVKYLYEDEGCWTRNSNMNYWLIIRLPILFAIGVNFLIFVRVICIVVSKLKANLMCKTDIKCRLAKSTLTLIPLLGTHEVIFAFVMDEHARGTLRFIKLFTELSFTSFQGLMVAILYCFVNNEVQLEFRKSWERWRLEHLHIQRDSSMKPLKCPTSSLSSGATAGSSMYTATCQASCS
Format: cell-based. The following applies: in vitro, dipeptides, FIG. 3. As to the method: The novel peptidomimetics were screened for Human GLP-1 receptor (HGLP-1 R) agonist activity (in vitro), using the cAMP cell-based assay, in stably transfected CHO/human GLP1R cells. […] CHO cells were grown in Ham's F12 medium containing L-Glutamine (2 mM), HEPES (25 mM), NaHCO3 (1.1 g/L) and supplemented with NewBorn Calf Serum (NBCS; 10%), Penicillin (50 U/ml (v/v)) and Streptomycin (50 ug/ml (v/v)). Cells were split every 3 days 1:8.
The cDNA encoding the human GLP-1 receptor was isolated by RT-PCR according to standard protocol. The full-length cDNA was cloned in pcDNA3.1(+). […] Clones expressing the receptor were generated by G418 (800 μg/ml active, Sigma) selection. The stable clones were thereafter maintained at 500 ug/ml (G418). The selected clone was used between passages 9-25 for cAMP assays.
The trypsin was inactivated using Ham's F12 medium containing 10% NBCS and the cells were suspended in 2 ml of complete medium. […] The medium was aspirated off from the 12 well plate and the cells were washed once using Ham's F12 (plain). […] The cells were incubated with the test compounds for 30 min in humidified atmosphere and 37° C. After the incubation, the medium was removed and cells were washed once with plain Ham's F12. Subsequently, the cells were lysed by adding 500 ul of ice cold 0.1 N HCl to each well and shaking for 30 minutes at 200 rpm. […] The total cAMP was estimated from the sample according to the manufacturer's protocol using Cyclic AMP immunoassay kit (R&D systems, Minneapolis. MN). The remaining supernatant is used to determine the protein concentration using micro BCA (Sigma). Data is calculated as percent of control (Vehicle: water) and expressed as Mean±SD.

For the compound `CCc1cc(OC)ccc1-c1ccc(CC(NC(=O)[C@H](CC(=O)O)NC(=O)[C@H](CO)NC(=O)[C@@H](NC(=O)C(C)(Cc2ccccc2F)NC(=O)[C@@H](NC(=O)CNC(=O)[C@H](CCC(N)=O)NC(=O)C2(NC(=O)[C@@H](N)Cc3c[nH]cn3)CC2)[C@@H](C)O)[C@@H](C)O)C(=O)NC(Cc2ccc(-c3ccccc3C)cc2)C(N)=O)cc1` (single isomer, unassigned) [Seq. ID. No. 33, H-(ACP)-QGT-(α-Me-2F-Phe)-TSD-Bip(OMe)-Bip(2Me)], the blood glucose level is 181 ± 2.5 in the assay with C57BL/6J mice (10 nM/kg, i.p, 0 min); 111 ± 3.4 with C57BL/6J mice (10 nM/kg, i.p, 30 min); 113 ± 3.1 with C57BL/6J mice (10 nM/kg, i.p, 60 min); 110 ± 1.8 in the assay on C57BL/6J mice (10 nM/kg, i.p, 120 min); 182 ± 2.5 in the assay on C57BL/6J mice (2 μM/kg, oral, 0 min); 116 ± 3.1 in the assay on C57BL/6J mice (2 μM/kg, oral, 30 min). In addition, the blood glucose level with C57BL/6J mice (2 μM/kg, oral, 60 min) is on record as 113 ± 4.1; in the assay on C57BL/6J mice (2 μM/kg, oral, 120 min), 110 ± 2.8.

In the case of `CCc1cc(OC)ccc1-c1ccc(CC(NC(=O)[C@H](CC(=O)O)NC(=O)[C@H](CO)NC(=O)[C@@H](NC(=O)C(C)(Cc2ccccc2F)NC(=O)[C@@H](NC(=O)CNC(=O)[C@H](CCC(N)=O)NC(=O)C2(NC(=O)[C@@H](N)Cc3c[nH]cn3)CC2)[C@@H](C)O)[C@@H](C)O)C(=O)NC(Cc2ccc(-c3ccccc3C)nc2)C(N)=O)cc1` (single isomer, unassigned) [Seq. ID. No. 34, H-(ACP)-QGT-(α-Me-2F-Phe)-TSD-Bip(OMe)-Bip(Pyr)], the blood glucose level with C57BL/6J mice (10 nM/kg, i.p, 0 min) turned out to be 180 ± 4.2; with C57BL/6J mice (10 nM/kg, i.p, 30 min), 113 ± 3.2; in the assay with C57BL/6J mice (10 nM/kg, i.p, 60 min) it was 112 ± 2.4; in the assay with C57BL/6J mice (10 nM/kg, i.p, 120 min) it was 110 ± 1.9; with C57BL/6J mice (2 μM/kg, oral, 0 min), 184 ± 2.2; in the assay with C57BL/6J mice (2 μM/kg, oral, 30 min), 118 ± 3.3. For the same compound, the blood glucose level in the assay with C57BL/6J mice (2 μM/kg, oral, 60 min) is listed as 112 ± 4.4; in the assay with C57BL/6J mice (2 μM/kg, oral, 120 min), 110 ± 2.9.

With `CCc1cc(OC)ccc1-c1ccc(CC(NC(=O)[C@H](CC(=O)O)NC(=O)[C@H](CO)NC(=O)[C@@H](NC(=O)C(C)(Cc2ccccc2F)NC(=O)[C@@H](NC(=O)CNC(=O)[C@H](CCC(N)=O)NC(=O)C2(NC(=O)[C@@H](N)Cc3c[nH]cn3)CC2)[C@@H](C)O)[C@@H](C)O)C(=O)NC(Cc2ccc(-c3ccccc3F)cc2)C(N)=O)cc1` (single isomer, unassigned) [Seq. ID. No. 35, H-(ACP)-QGT-(α-Me-2F-Phe)-TSD-Bip(OMe)-Bip(2F)], the blood glucose level is listed as 182 ± 4.1 with C57BL/6J mice (10 nM/kg, i.p, 0 min); 112 ± 3.1 in the assay on C57BL/6J mice (10 nM/kg, i.p, 30 min); 113 ± 2.6 with C57BL/6J mice (10 nM/kg, i.p, 60 min); 111 ± 1.8 in the assay with C57BL/6J mice (10 nM/kg, i.p, 120 min); 183 ± 2.1 in the assay on C57BL/6J mice (2 μM/kg, oral, 0 min); 118 ± 3.4 with C57BL/6J mice (2 μM/kg, oral, 30 min). Besides, the blood glucose level was found to be 113 ± 4.6 in the assay with C57BL/6J mice (2 μM/kg, oral, 60 min) and 111 ± 2.8 in the assay on C57BL/6J mice (2 μM/kg, oral, 120 min).

On to `CCc1cc(OC)ccc1-c1ccc(CC(NC(=O)[C@H](CC(=O)O)NC(=O)[C@H](CO)NC(=O)[C@@H](NC(=O)C(C)(Cc2ccccc2F)NC(=O)[C@@H](NC(=O)CNC(=O)[C@H](CCC(N)=O)NC(=O)C2(NC(=O)[C@@H](N)Cc3c[nH]cn3)CC2)[C@@H](C)O)[C@@H](C)O)C(=O)NC(Cc2ccc(-c3ccccc3C(F)(F)F)cc2)C(N)=O)cc1` (single isomer, unassigned) [Seq. ID. No. 36, H-(ACP)-QGT-(α-Me-2F-Phe)-TSD-Bip(OMe)-Bip(2CF3)], for which the blood glucose level with C57BL/6J mice (10 nM/kg, i.p, 0 min) is listed as 180 ± 2.8; with C57BL/6J mice (10 nM/kg, i.p, 30 min), 110 ± 3.6; in the assay on C57BL/6J mice (10 nM/kg, i.p, 60 min), 112 ± 2.3; in the assay on C57BL/6J mice (10 nM/kg, i.p, 120 min), 112 ± 1.6; in the assay on C57BL/6J mice (2 μM/kg, oral, 0 min), 183 ± 2.3; in the assay on C57BL/6J mice (2 μM/kg, oral, 30 min) it was 119 ± 3.0. Moreover, the blood glucose level in the assay with C57BL/6J mice (2 μM/kg, oral, 60 min) amounted to 112 ± 4.3; with C57BL/6J mice (2 μM/kg, oral, 120 min), 109 ± 2.6.

Take Bip(OMe)-Bip(2CF3): the “activity in human Glucagon receptor assay (in words)” value at human glucagon receptor is “antagonistic activity”. The “activity in human GLP-1 receptor assay (in words)” value at Human GLP-1 receptor is “antagonistic activity”.

Regarding Bip(OMe)-Bip(2F), at human glucagon receptor, the “activity in human Glucagon receptor assay (in words)” value is “antagonistic activity”. Besides, the “activity in human GLP-1 receptor assay (in words)” value on Human GLP-1 receptor was “antagonistic activity”.

On to Bip(OMe)-Bip(2Me), for which the “activity in human Glucagon receptor assay (in words)” value on human glucagon receptor is “antagonistic activity”. Moreover, the “activity in human GLP-1 receptor assay (in words)” value at Human GLP-1 receptor is reported as “antagonistic activity”.

Bip(OMe)-Bip(Pyr): the “activity in human Glucagon receptor assay (in words)” value on human glucagon receptor is listed as “antagonistic activity”. For the same compound, the “activity in human GLP-1 receptor assay (in words)” value on Human GLP-1 receptor was “antagonistic activity”.
